In assay [1] the test system is EGFR (del19/T790M/C797S). In words: HTRF inhibitory activity assay against EGFR (del19/T790M/C797S) enzyme. In kind it is biochemical. Summed up: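 Wild-type or mutant EGFR preincubated with serially diluted compound 10 min at 28 °C, then reacted 40 min at room temperature with biotinylated TK substrate and ATP. Phosphorylation detected by HTRF (Eu-cryptate anti-TK antibody, streptavidin-XL665, 60 min), 665/615 nm ratio; % inhibition and IC50 vs control.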
(In general: Time-resolved FRET reads energy transfer from a long-lived donor to a nearby acceptor.)

Assay [2] has as its target EGFR (WT) (Homo sapiens, UniProt P00533). In words: HTRF inhibitory activity assay against EGFR (WT) enzyme. In kind it is biochemical. On the procedure: (§1) Inhibitory Activity Assay of the Compounds Disclosed Herein Against EGFR (del19/T790M/C797S), EGFR (L858R/T790M/C797S) or EGFR (WT) Enzymes
(§2) The inhibitory effects of the compounds against EGFR (del19/T790M/C797S), EGFR (L858R/T790M/C797S) or EGFR (WT) enzyme activity was determined by using HTRF. The procedures are as follows:
(§3) The WT or mutant EGFR proteins were incubated with a serially diluted compounds at 28° C. for 10 min followed by addition of biotin-labeled general tyrosine kinase (TK) substrate and ATP. The mixture was incubated at room temperature for 40 min for reaction. After the termination of the reaction, an Eu3+-Cryptate-labeled antibody against TK and streptavidin-XL665 were added and the mixture was incubated at room temperature for 60 min. The luminescences at 615 nm and 665 nm were detected and the ratio of 665/615 was calculated to quantify the level of TK substrate phosphorylation. Inhibition % and IC50 of the compounds were calculated relative to the control group.

The target of assay [3] is Ba/F3 (EGFR^del19/T790M/C797S) triple-mutant cells (Homo sapiens, UniProt P00533, T790M/C797S, cells depend on it, form not given). In words: Antiproliferative activity against Ba/F3 (EGFR del19/T790M/C797S) triple-mutant cells, Cell Titer Glow. To be noted: three days after addition of compounds; read-out: Antiproliferative activity BaF3(EGFR^del19/T790M/C797S) IC50. In kind it is cell-based. An outline of the steps:
(§4)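 Cells seeded (3000 Ba/F3 del19/T790M/C797S or 2000 A431 per well), compounds added after one day, serially diluted up to 500 nM for Ba/F3 and up to 10 μM for A431. Growth read by Cell Titer Glow after 3 days; IC50 from % growth inhibition.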
(Cellular ATP, detected with luciferase, serves as a proxy for viable cell number.)

For assay [4], the system named is A431 (EGFR WT) cells. The assay is described as follows: Antiproliferative activity against A431 (EGFR WT) cells, Cell Titer Glow. Type of assay: cell-based. To be noted: Homo sapiens, A-431, 72 h; three days after addition of compounds; read-out: Antiproliferative activity A431 wild-type (WT) IC50. Summed up: as §4
In assay [5] the target is EGFR (L858R/T790M/C797S) (Homo sapiens, UniProt P00533, C797S/L858R/T790M). The assay is described as follows: HTRF inhibitory activity assay against EGFR (L858R/T790M/C797S) enzyme. Type of assay: biochemical. To be noted: read-out: EGFR (L858R/T790M/C797S) inhibition (%) (0.3 nM compound). On the procedure: as §1, §2, §3

For orientation: IC50 means the concentration that inhibits the measured activity by half.

Sequence of EGFR (L858R/T790M/C797S) (P00533 25-1210 T790M/C797S/L858R): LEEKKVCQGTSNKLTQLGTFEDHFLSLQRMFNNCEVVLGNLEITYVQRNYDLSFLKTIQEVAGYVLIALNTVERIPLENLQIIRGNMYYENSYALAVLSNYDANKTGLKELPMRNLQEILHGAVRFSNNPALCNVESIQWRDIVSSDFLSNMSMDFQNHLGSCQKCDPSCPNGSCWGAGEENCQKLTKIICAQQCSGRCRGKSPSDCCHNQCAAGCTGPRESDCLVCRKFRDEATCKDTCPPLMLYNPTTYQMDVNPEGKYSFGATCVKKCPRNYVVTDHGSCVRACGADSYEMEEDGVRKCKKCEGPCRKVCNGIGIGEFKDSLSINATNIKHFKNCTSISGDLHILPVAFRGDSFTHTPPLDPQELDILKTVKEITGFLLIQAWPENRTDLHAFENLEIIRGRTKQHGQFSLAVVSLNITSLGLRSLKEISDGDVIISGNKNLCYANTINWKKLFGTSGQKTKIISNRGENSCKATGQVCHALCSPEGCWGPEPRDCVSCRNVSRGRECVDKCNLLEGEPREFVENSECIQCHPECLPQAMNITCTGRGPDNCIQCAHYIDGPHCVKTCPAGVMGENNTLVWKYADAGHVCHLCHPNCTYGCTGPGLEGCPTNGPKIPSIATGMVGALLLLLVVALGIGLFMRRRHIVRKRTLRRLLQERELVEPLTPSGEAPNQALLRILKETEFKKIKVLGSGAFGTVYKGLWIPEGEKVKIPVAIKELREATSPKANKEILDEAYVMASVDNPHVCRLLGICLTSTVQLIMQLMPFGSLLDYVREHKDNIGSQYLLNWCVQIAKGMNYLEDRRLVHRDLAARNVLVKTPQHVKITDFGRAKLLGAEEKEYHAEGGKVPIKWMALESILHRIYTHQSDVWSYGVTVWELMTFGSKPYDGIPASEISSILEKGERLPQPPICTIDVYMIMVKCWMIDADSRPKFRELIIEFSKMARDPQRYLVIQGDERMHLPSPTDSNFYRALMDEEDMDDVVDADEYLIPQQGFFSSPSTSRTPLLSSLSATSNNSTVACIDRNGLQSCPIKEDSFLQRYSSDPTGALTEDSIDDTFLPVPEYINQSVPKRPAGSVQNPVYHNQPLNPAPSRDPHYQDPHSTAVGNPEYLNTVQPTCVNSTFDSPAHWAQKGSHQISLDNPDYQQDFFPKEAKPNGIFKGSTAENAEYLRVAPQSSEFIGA
Sequence of Ba/F3 (EGFR^del19/T790M/C797S) triple-mutant cells (P00533 with tags, fused parts or gaps DEL746-750/T790M/C797S, form open): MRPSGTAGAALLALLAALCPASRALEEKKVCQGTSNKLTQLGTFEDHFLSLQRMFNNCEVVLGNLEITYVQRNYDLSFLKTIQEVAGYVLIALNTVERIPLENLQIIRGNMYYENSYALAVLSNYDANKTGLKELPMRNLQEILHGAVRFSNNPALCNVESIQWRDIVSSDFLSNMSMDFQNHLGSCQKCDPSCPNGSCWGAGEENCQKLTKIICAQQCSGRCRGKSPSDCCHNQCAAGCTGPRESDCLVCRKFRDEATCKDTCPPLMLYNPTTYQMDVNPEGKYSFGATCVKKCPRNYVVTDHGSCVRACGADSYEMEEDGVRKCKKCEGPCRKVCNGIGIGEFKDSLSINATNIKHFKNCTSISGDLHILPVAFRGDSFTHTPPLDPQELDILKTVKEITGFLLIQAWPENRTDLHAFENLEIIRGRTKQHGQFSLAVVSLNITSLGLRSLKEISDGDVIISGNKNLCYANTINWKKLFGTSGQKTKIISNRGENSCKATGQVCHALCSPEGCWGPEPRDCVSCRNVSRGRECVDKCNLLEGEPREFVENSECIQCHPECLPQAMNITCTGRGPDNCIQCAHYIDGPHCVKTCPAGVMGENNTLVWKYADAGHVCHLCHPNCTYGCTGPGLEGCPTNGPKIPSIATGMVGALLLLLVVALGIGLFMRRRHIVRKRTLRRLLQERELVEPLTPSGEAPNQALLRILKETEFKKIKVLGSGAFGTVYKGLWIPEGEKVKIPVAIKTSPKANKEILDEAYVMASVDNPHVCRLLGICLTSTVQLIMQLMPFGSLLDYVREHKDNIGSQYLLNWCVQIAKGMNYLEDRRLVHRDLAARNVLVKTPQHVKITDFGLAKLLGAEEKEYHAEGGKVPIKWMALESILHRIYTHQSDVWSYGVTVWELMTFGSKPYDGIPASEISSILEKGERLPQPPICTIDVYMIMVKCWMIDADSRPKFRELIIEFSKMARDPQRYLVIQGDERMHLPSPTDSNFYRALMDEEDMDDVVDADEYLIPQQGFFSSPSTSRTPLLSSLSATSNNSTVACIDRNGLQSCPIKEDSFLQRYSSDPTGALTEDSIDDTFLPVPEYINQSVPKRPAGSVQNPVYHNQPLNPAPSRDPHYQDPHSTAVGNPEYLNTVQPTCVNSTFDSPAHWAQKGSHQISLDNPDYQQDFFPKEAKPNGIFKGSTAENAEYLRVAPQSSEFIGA
Sequence of EGFR (WT) (P00533 25-1210): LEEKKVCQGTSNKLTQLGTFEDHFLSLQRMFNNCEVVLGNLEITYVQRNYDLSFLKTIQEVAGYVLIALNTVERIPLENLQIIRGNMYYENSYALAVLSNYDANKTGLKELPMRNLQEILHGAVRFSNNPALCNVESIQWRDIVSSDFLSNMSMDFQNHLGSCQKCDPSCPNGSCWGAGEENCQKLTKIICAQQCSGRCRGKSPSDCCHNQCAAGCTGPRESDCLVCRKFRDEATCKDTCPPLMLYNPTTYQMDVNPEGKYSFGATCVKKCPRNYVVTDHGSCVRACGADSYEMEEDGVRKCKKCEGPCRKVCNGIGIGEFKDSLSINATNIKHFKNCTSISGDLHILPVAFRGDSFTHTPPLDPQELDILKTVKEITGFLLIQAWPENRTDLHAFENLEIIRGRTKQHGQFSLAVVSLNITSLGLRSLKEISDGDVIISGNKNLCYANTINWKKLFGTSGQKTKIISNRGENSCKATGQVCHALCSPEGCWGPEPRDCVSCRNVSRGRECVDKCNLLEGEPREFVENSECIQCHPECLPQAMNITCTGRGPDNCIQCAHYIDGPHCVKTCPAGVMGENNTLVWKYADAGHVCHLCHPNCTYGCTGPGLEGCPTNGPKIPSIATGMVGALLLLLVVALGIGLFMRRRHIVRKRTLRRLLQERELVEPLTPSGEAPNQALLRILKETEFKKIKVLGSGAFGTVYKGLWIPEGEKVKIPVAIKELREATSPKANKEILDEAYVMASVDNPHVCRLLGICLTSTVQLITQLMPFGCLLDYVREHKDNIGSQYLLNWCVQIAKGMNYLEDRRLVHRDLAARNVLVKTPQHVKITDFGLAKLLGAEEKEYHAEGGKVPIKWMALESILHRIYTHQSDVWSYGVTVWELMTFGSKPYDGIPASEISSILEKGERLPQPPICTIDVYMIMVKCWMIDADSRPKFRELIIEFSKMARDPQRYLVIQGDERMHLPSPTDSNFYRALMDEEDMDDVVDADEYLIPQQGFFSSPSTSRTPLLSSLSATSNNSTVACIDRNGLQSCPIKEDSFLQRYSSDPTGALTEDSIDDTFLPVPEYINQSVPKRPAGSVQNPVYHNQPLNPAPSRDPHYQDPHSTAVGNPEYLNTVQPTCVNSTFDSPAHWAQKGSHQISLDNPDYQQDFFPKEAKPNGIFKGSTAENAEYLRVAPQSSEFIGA

Regarding `CC(C)Oc1nc(Nc2ccc(N3CCC(N4CCN(C)CC4)CC3)cc2)c(C(N)=O)nc1-c1ccccc1` [compound 14], the “EGFR (del19/T790M/C797S) inhibition (%) (0.3 nM compound)” value (“EGFR (del19/T790M/C797S) inhibition (%)” for short) in assay [1] is reported as “+ (+ indicates an inhibition less than or equal to 20%)”. Moreover, the IC50 was more than 300 nM in assay [2] and 950 nM in assay [4]. For the same compound, in assay [3], the GI50 amounted to 113 nM.
Take `CN1CCN(C2CCN(c3ccc(Nc4nc(NC5CCOCC5)c(-c5ccccc5)nc4C(N)=O)cc3)CC2)CC1` [compound 1]: the “EGFR (del19/T790M/C797S) inhibition (%)” value in assay [1] is “+ (+ indicates an inhibition less than or equal to 20%)”. Moreover, the inhibition at 0.0003 µM in assay [5] was not above 20%. The half-inhibitory concentration (IC50) in assay [2] was more than 300 nM; in assay [4], 2500 nM. For the same compound, in assay [3], the GI50 stood at 236 nM.
With `CN1CCN(C2CCN(c3ccc(Nc4nc(NC5CCOCC5)c(-c5cc[nH]n5)nc4C(N)=O)cc3)CC2)CC1` [compound 55, 3-((4-(4-(4-methylpiperazin-1-yl)piperidin-1-yl)phenyl)amino)-6-(1H-pyrazol-3-yl)-5-((tetrahydro-2H-pyran-4-yl)amino)pyrazine-2-carboxamide], in assay [1], the “EGFR (del19/T790M/C797S) inhibition (%)” value is on record as “+++ (+++ indicates an inhibition greater than 50%.)”. The inhibition at 0.0003 µM in assay [5] was not above 20%. The IC50 in assay [2] was more than 300 nM; in assay [4], 70 nM. Moreover, in assay [3], the GI50 turned out to be 16 nM.
As for `CN1CCN(C2CCN(c3ccc(Nc4nc(NC5CCOCC5)c(-c5ccncc5)nc4C(N)=O)cc3)CC2)CC1` [compound 39, 3-((4-(4-(4-methylpiperazin-1-yl)piperidin-1-yl)phenyl)amino)-6-(pyridin-4-yl)-5-((tetrahydro-2H-pyran-4-yl)amino)pyrazine-2-carboxamide], in assay [1], the “EGFR (del19/T790M/C797S) inhibition (%)” value was “+++ (+++ indicates an inhibition greater than 50%.)”. Besides, in assay [5], the inhibition at 0.0003 µM is more than 50%. Also, the IC50 is more than 300 nM in assay [2] and 340 nM in assay [4]. Besides, in assay [3], the GI50 was 29 nM.
Take `CCc1cc(Nc2nc(NC3CC4(COC4)C3)c(-c3cc[nH]n3)nc2C(N)=O)ccc1N1CCC(N2CCN(C)CC2)CC1` [compound 503]: the “EGFR (del19/T790M/C797S) inhibition (%)” value in assay [1] is given as “+++ (+++ indicates an inhibition greater than 50%.)”. In assay [5], the inhibition at 0.0003 µM is not above 20%. Besides, the IC50 in assay [2] stood at 10.2 nM; in assay [4], 660 nM. The GI50 in assay [3] was 61 nM.
With `CN(C)C1CCN(c2ccc(Nc3nc(NC4CCOCC4)c(-c4ccccc4)nc3C(N)=O)cc2)CC1` [compound 59], the “EGFR (del19/T790M/C797S) inhibition (%)” value in assay [1] was “+ (+ indicates an inhibition less than or equal to 20%)”. The concentration for half-maximal inhibition (IC50) in assay [2] is more than 300 nM; in assay [4], 1400 nM. Also, in assay [3], the GI50 was found to be 72 nM.
As for `CN1CCN(C2CCN(c3ccc(Nc4nc(NC5CC6(COC6)C5)c(-c5cccc6[nH]ccc56)nc4C(N)=O)cc3)CC2)CC1` [compound 527], the “EGFR (del19/T790M/C797S) inhibition (%)” value in assay [1] is “+++ (+++ indicates an inhibition greater than 50%.)”. Further, the inhibition at 0.0003 µM in assay [5] is more than 50%. Besides, the IC50 was determined as 1.7 nM in assay [2] and 100 nM in assay [4]. In assay [3], the GI50 was 4 nM.
For the compound `CC(C)Nc1nc(Nc2ccc(N3CCC(N4CCN(C)CC4)CC3)cc2)c(C(N)=O)nc1-c1ccccc1` [compound 11], the “EGFR (del19/T790M/C797S) inhibition (%)” value in assay [1] is “++ (++ indicates an inhibition from 20% to 50%)”. The IC50 in assay [2] was more than 300 nM; in assay [4], 540 nM. Also, the GI50 in assay [3] was determined as 107 nM.
In the case of `CN1CCN(C2CCN(c3ccc(Nc4nc(NCC(C)(C)O)c(-c5ccccc5)nc4C(N)=O)cc3)CC2)CC1` [compound 21], the “EGFR (del19/T790M/C797S) inhibition (%)” value in assay [1] is “++ (++ indicates an inhibition from 20% to 50%)”. For the same compound, the IC50 in assay [2] was more than 300 nM; in assay [4] it was 520 nM. For the same compound, the GI50 in assay [3] came out at 48 nM.
For the compound `CN1CCC(Oc2nc(Nc3ccc(N4CCC(N5CCN(C)CC5)CC4)cc3)c(C(N)=O)nc2-c2ccccc2)CC1` [compound 4], in assay [1], the “EGFR (del19/T790M/C797S) inhibition (%)” value is given as “+ (+ indicates an inhibition less than or equal to 20%)”. In addition, the inhibition at 0.0003 µM in assay [5] was not above 20%. The results for the half-inhibitory concentration (IC50) in assay [2] and in assay [4] were more than 100 nM and 1700 nM, respectively. For the same compound, the GI50 in assay [3] amounted to 295 nM.
With `CN1CCN(C2CCN(c3ccc(Nc4nc(NC5CCOCC5)c(-c5cn[nH]c5)nc4C(N)=O)cc3)CC2)CC1` [compound 57], in assay [1], the “EGFR (del19/T790M/C797S) inhibition (%)” value was “++ (++ indicates an inhibition from 20% to 50%)”. Besides, the inhibition at 0.0003 µM in assay [5] is 20 to 50%. In addition, the IC50 in assay [2] was more than 300 nM; in assay [4] it was 320 nM. Moreover, the GI50 in assay [3] was determined as 79 nM.
Take `CN1CCN(C2CCN(c3ccc(Nc4nc(N[C@H]5CC[C@H](O)CC5)c(-c5cccc6[nH]ccc56)nc4C(N)=O)cc3)CC2)CC1` [compound 526]: the “EGFR (del19/T790M/C797S) inhibition (%)” value in assay [1] is reported as “+++ (+++ indicates an inhibition greater than 50%.)”. Also, the inhibition at 0.0003 µM in assay [5] was more than 50%. The IC50 was 0.33 nM in assay [2] and 100 nM in assay [4]. Further, in assay [3], the GI50 is 5 nM.
With `CNc1nc(Nc2ccc(N3CCC(N4CCN(C)CC4)CC3)cc2)c(C(N)=O)nc1-c1ccccc1` [compound 13], the “EGFR (del19/T790M/C797S) inhibition (%)” value in assay [1] is on record as “+ (+ indicates an inhibition less than or equal to 20%)”. The values for the concentration for half-maximal inhibition (IC50) in assay [2] and in assay [4] were more than 300 nM and 1300 nM, respectively. Further, in assay [3], the GI50 turned out to be 197 nM.
For the compound `CN1CCN(C2CCN(c3ccc(Nc4nc(NC5CC5)c(-c5cccc6[nH]ccc56)nc4C(N)=O)cc3)CC2)CC1` [compound 522], in assay [1], the “EGFR (del19/T790M/C797S) inhibition (%)” value is on record as “+++ (+++ indicates an inhibition greater than 50%.)”. In assay [5], the inhibition at 0.0003 µM is more than 50%. The figures for the concentration for half-maximal inhibition (IC50) in assay [2] and in assay [4] were 0.22 nM and 30 nM, respectively. Moreover, the GI50 in assay [3] stood at 2 nM.
In the case of `CN1CCN(C2CCN(c3ccc(Nc4nc(Nc5ccccc5)c(-c5ccccc5)nc4C(N)=O)cc3)CC2)CC1` [compound 5], in assay [1], the “EGFR (del19/T790M/C797S) inhibition (%)” value is “+ (+ indicates an inhibition less than or equal to 20%)”. Besides, the inhibition at 0.0003 µM in assay [5] was not above 20%. This compound came in with an IC50 in assay [2] of more than 100 nM.
Turning to `CC(C)Nc1nc(Nc2ccc(N3CCC(N4CCN(C)CC4)CC3)cc2)c(C(N)=O)nc1-c1cccc2[nH]ccc12` [compound 521], the “EGFR (del19/T790M/C797S) inhibition (%)” value in assay [1] is reported as “+++ (+++ indicates an inhibition greater than 50%.)”. Moreover, the inhibition at 0.0003 µM in assay [5] was more than 50%. The IC50 in assay [2] turned out to be 0.27 nM; in assay [4], 50 nM. Further, the GI50 in assay [3] is 4 nM.

The record behind these values is patent US12600714B2, “Substituted pyrazinecarboxamide compounds for treating diseases related to EGFR mutation” (WIGEN BIOMEDICINE TECHNOLOGY (SHANGHAI) CO., LTD., priority 2020, dated 2026).
